Experimental data published in patent US8791132B2, “Compounds and methods for treatment of hypertension” (Medivation Technologies, Inc., priority 2011, dated 2014).
Where “and” joins values, the source holds several entries; their conditions need not be identical. Equal entries are not always repeated.

Assays:
[1] = target: T1, human recombinant adrenergic α2B receptor (Homo sapiens, UniProt P18089); test: Radioligand binding, adrenergic α2B ([3H]Rauwolscine); conditions: for Percentage inhibition of ligand binding, Adrenergic α2B (0.03 μM): compound at 0.03 μM; for Percentage inhibition of ligand binding, Adrenergic α2B (0.03 μM) / inhibition at 0.03 µM / inhibition at 0.1 µM: [3H]Rauwolscine, repeat datapoints each shown; for inhibition at 0.03 µM: read-out: Percentage inhibition of ligand binding, Adrenergic α2B (0.03 μM), compound at 0.03 μM; for Ki: read-out: Ki α2B; for inhibition at 0.1 µM: read-out: Percentage inhibition of ligand binding, Adrenergic α2B (0.1 μM), compound at 0.1 μM
T1 construct: expressed in transfected cells; host or cells: CHO-K1
T1 sequence (P18089 1-450): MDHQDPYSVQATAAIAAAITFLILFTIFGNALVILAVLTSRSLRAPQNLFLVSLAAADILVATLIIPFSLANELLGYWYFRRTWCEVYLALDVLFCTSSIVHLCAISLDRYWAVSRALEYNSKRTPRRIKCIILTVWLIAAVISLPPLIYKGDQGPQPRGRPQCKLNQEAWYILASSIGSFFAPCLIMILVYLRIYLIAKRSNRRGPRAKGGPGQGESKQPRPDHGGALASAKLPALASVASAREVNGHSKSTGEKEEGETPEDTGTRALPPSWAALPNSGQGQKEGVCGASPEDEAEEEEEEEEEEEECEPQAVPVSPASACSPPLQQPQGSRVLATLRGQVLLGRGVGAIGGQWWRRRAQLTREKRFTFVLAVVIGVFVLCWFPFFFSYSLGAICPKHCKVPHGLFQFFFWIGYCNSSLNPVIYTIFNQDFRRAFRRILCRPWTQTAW
Summary of the method: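 Assay used CHO-K1-expressed human α2B receptor in Tris-HCl pH 7.4 buffer with MgCl2, EDTA and BSA; 60 min incubation at 25 °C.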

[2] = target: T2, human recombinant adrenergic α2A receptor (Homo sapiens, UniProt P08913); test: Radioligand binding, adrenergic α2A ([3H]MK-912); conditions: for Percentage inhibition of ligand binding, Adrenergic α2A (0.1 μM): compound at 0.1 μM; for Percentage inhibition of ligand binding, Adrenergic α2A (0.1 μM) / inhibition at 0.1 µM / inhibition at 0.03 µM: [3H]MK-912, repeat datapoints each shown; for inhibition at 0.1 µM: read-out: Percentage inhibition of ligand binding, Adrenergic α2A (0.1 μM), compound at 0.1 μM; for inhibition at 0.03 µM: read-out: Percentage inhibition of ligand binding, Adrenergic α2A (0.03 μM), compound at 0.03 μM
T2 construct: expressed in transfected cells; host or cells: insect Sf9 cells
T2 sequence (P08913 1-465): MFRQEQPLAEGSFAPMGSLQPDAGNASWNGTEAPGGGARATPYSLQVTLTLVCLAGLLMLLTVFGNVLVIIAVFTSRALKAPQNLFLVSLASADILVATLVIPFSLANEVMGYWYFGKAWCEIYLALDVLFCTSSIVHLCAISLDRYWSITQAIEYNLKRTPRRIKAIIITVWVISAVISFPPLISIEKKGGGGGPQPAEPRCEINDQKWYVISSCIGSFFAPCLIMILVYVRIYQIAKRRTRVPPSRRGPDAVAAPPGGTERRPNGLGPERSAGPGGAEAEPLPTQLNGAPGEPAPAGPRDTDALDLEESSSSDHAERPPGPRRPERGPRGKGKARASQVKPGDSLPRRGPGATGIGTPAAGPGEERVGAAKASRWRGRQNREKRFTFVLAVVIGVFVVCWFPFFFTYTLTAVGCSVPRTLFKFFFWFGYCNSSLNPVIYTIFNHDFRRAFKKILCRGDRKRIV
Summary of the method: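 In 50 mM Tris-HCl (pH 7.4) containing 12.5 mM MgCl2 and 2 mM EDTA, Sf9-expressed receptor was exposed to test compound plus 1 nM [3H]MK-912 at 25 °C for 60 min. Specific binding, corrected using 10 μM WB-4101, was quantified by filtration and counting and expressed as percent inhibition.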

[3] = target: T3, rat adrenergic α1B receptor (Rattus norvegicus, UniProt P15823); test: Radioligand binding, adrenergic α1B ([3H]Prazosin); conditions: [3H]Prazosin, repeat datapoints each shown; for Percentage inhibition of ligand binding, Adrenergic α1B (0.1 μM): compound at 0.1 μM; for inhibition at 0.1 µM: read-out: Percentage inhibition of ligand binding, Adrenergic α1B (0.1 μM), compound at 0.1 μM; for inhibition at 0.03 µM: read-out: Percentage inhibition of ligand binding, Adrenergic α1B (0.03 μM), compound at 0.03 μM
T3 construct: rat adrenergic α1B receptor obtained from Wistar Rat liver; from tissue; host or cells: Wistar rat liver
T3 sequence (P15823 1-515): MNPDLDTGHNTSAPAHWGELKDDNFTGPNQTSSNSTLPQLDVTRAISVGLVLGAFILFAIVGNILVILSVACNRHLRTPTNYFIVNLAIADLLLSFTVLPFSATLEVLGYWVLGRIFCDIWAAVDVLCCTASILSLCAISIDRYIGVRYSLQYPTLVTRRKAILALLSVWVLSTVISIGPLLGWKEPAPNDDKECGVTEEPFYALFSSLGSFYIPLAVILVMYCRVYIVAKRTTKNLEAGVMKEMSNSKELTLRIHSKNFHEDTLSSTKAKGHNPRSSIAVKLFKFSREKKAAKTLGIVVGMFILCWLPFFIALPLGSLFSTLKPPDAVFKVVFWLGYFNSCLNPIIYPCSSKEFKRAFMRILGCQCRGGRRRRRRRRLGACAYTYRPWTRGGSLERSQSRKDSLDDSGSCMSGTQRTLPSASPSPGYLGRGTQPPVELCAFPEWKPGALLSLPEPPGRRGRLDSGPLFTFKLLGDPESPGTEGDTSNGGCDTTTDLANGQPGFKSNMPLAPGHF
Summary of the method: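 Filter binding with Wistar rat liver α1B preparation: test compound plus 0.25 nM [3H]prazosin, 1 h at 25° C in modified Tris-HCl buffer pH 7.4.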

For Cc1ccc2c(c1)c1c(n2CC(N)c2ccncc2)CC2CCC1N2C (single isomer, unassigned) [155b], the “Percentage inhibition of ligand binding, Adrenergic α2B (0.03 μM)” value (from here on “Percentage inhibition … (0.03 μM)”) [1] was 5%, the “Percentage inhibition of ligand binding, Adrenergic α2A (0.1 μM)” value [2] was 5% and the “Percentage inhibition of ligand binding, Adrenergic α1B (0.1 μM)” value [3] was 1%.
For Cc1cnc2c(c1)c1c(n2CC(N)c2ccc(C#N)cc2)CCN(C)C1 (single isomer, unassigned) [159b], the “Percentage inhibition … (0.03 μM)” value [1] was 52%, the “Percentage inhibition of ligand binding, Adrenergic α2A (0.1 μM)” value [2] was −12% and the “Percentage inhibition of ligand binding, Adrenergic α1B (0.1 μM)” value [3] was 53%.
Cc1cnc2c(c1)c1c(n2CC(N)c2ccc(C#N)cc2)CCNC1 (single isomer, unassigned) [160a] was tested, and the inhibition at 0.03 µM [1] was 43%, the “Percentage inhibition of ligand binding, Adrenergic α2A (0.1 μM)” value [2] was −12% and the “Percentage inhibition of ligand binding, Adrenergic α1B (0.1 μM)” value [3] was 35%.
In the case of Cc1cnc2c(c1)c1c(n2CC(N)c2ccc(C#N)cc2)CCNC1 (single isomer, unassigned) [160b], the “Percentage inhibition … (0.03 μM)” value [1] is reported as 41%, the “Percentage inhibition of ligand binding, Adrenergic α2A (0.1 μM)” value [2] is reported as 5% and the “Percentage inhibition of ligand binding, Adrenergic α1B (0.1 μM)” value [3] is reported as 65%.
In the case of Cc1ccc2c(c1)c1c(n2CC(O)c2ccc(F)cc2F)CCN(C)CC1 (single isomer, unassigned) [172a], the “Percentage inhibition … (0.03 μM)” value [1] is reported as 65%, the “Percentage inhibition of ligand binding, Adrenergic α2A (0.1 μM)” value [2] is reported as 18% and the “Percentage inhibition of ligand binding, Adrenergic α1B (0.1 μM)” value [3] is reported as 54%.
In the case of Cc1ccc2c(c1)c1c(n2CC(O)c2ccc(F)cc2F)CCN(C)CC1 (single isomer, unassigned) [172b], the “Percentage inhibition … (0.03 μM)” value [1] is reported as 93%, the “Percentage inhibition of ligand binding, Adrenergic α2A (0.1 μM)” value [2] is reported as 46% and the “Percentage inhibition of ligand binding, Adrenergic α1B (0.1 μM)” value [3] is reported as 92%.
CN1CCc2c(c3ccccc3n2CC(C)(O)c2cccnc2)C1 (single isomer, unassigned) [173a] was tested, and the “Percentage inhibition … (0.03 μM)” value [1] was 61% and 68%, the Ki [1] was 8.77 nM and the inhibition at 0.1 µM [1] was 82%. For the same compound, the “Percentage inhibition of ligand binding, Adrenergic α2A (0.1 μM)” value [2] was 15% and the inhibition at 0.1 µM [3] was 5%.
For CN1CCc2c(c3ccccc3n2CC(C)(O)c2cccnc2)C1 (single isomer, unassigned) [173b], the “Percentage inhibition … (0.03 μM)” value [1] was 28%, the “Percentage inhibition of ligand binding, Adrenergic α2A (0.1 μM)” value [2] was −2% and the “Percentage inhibition of ligand binding, Adrenergic α1B (0.1 μM)” value [3] was 8%.
With CN1CCc2c(c3cc(C(F)(F)F)ccc3n2CC(C)(O)c2cccnc2)C1 (single isomer, unassigned) [174a] the “Percentage inhibition … (0.03 μM)” value [1] was 62% and 71%, the Ki [1] was 7.91 nM and the inhibition at 0.1 µM [1] was 86%. For the same compound, the “Percentage inhibition of ligand binding, Adrenergic α2A (0.1 μM)” value [2] was 22% and the inhibition at 0.1 µM [3] was 13%.
With CN1CCc2c(c3cc(C(F)(F)F)ccc3n2CC(C)(O)c2cccnc2)C1 (single isomer, unassigned) [174b] the “Percentage inhibition … (0.03 μM)” value [1] was 15%, the “Percentage inhibition of ligand binding, Adrenergic α2A (0.1 μM)” value [2] was 6% and the “Percentage inhibition of ligand binding, Adrenergic α1B (0.1 μM)” value [3] was 11%.
For CC(O)(Cn1c2c(c3cc(Cl)ccc31)CNCC2)c1cccnc1 (single isomer, unassigned) [175a], the “Percentage inhibition … (0.03 μM)” value [1] was 69% and 73%, the Ki [1] was 4.42 nM and the inhibition at 0.1 µM [1] was 90%. For the same compound, the inhibition at 0.1 µM [2] was 11% and the “Percentage inhibition of ligand binding, Adrenergic α1B (0.1 μM)” value [3] was 11%.
In the case of CC(O)(Cn1c2c(c3cc(Cl)ccc31)CNCC2)c1cccnc1 (single isomer, unassigned) [175b], the “Percentage inhibition … (0.03 μM)” value [1] is reported as 4%, the “Percentage inhibition of ligand binding, Adrenergic α2A (0.1 μM)” value [2] is reported as 7% and the “Percentage inhibition of ligand binding, Adrenergic α1B (0.1 μM)” value [3] is reported as 4%.
For Cc1ccc2c(c1)c1c(n2CC(C)(O)c2cnccn2)CCN2CCCC12 (single isomer, unassigned) [176b], the “Percentage inhibition … (0.03 μM)” value [1] was 67%, the “Percentage inhibition of ligand binding, Adrenergic α2A (0.1 μM)” value [2] was 12% and the “Percentage inhibition of ligand binding, Adrenergic α1B (0.1 μM)” value [3] was 41%.
For Cc1ccc(C(O)Cn2c3c(c4cc(C)ccc42)CN(C)CC3)cc1 (single isomer, unassigned) [183b, 2-(1,2,3,4-tetrahydro-2,8-dimethylpyrido[4,3-b]indol-5-yl)-1-p-tolylethanol], the inhibition at 0.03 µM [1] was 98%, the Ki [2] was 2.72 nM and the “Percentage inhibition of ligand binding, Adrenergic α2A (0.1 μM)” value [2] was 97%. It also gave an inhibition at 0.03 µM [2] of 84%, an inhibition at 0.1 µM [2] of 93% and an inhibition at 0.1 µM [3] of 93%.
For C/C(=C\n1c2c(c3cc(C)ccc31)C1CCCN1CC2)c1ccc(C)nc1 (single isomer, unassigned) [193b, 10-methyl-7-(2-(6-methylpyridin-3-yl)prop-1-enyl)-2,3,5,6,7,11c-hexahydro-1H-indolizino[7,8-b]indole], the inhibition at 0.03 µM [1] was 104%, the inhibition at 0.1 µM [2] was 83% and the inhibition at 0.1 µM [3] was 91%.
C/C(=C\n1c2c(c3cc(C)ccc31)C1CCCN1CC2)c1ccc(F)cc1 (single isomer, unassigned) [194b, 7-(2-(4-fluorophenyl)prop-1-enyl)-10-methyl-2,3,5,6,7,11c-hexahydro-1H-indolizino[7,8-b]indole] was tested, and the inhibition at 0.03 µM [1] was 103%, the inhibition at 0.1 µM [2] was 94% and the inhibition at 0.1 µM [3] was 100%.
In the case of Cc1ccc2c(c1)c1c(n2CC(C)(O)c2ccc(C)nc2)CN(C)CC1 (single isomer, unassigned) [196a], the “Percentage inhibition … (0.03 μM)” value [1] is reported as 103%, the Ki [1] is reported as 1.83 nM and the inhibition at 0.03 µM [1] is reported as 93%. For the same compound, the Ki [2] was 16.8 nM, the “Percentage inhibition of ligand binding, Adrenergic α2A (0.1 μM)” value [2] was 71% and the inhibition at 0.03 µM [2] was 37%. The inhibition at 0.1 µM [2] was 58%, the inhibition at 0.03 µM [3] was 30% and the inhibition at 0.1 µM [3] was 54.6%.
With Cc1ccc2c(c1)c1c(n2CCc2ccc(C)nc2)CCN2CCCC12 (single isomer, unassigned) [197b, 9-methyl-6-[2-(6-methyl-pyridin-3-yl)-ethyl]-2,3,4,5,6,10c-hexahydro-1H-3a, 6-diaza-cyclopenta[c]fluorene] the “Percentage inhibition … (0.03 μM)” value [1] was 105%, the Ki [1] was 0.78 nM and the inhibition at 0.03 µM [1] was 101%. For the same compound, the Ki [2] was 11.9 nM, the “Percentage inhibition of ligand binding, Adrenergic α2A (0.1 μM)” value [2] was 56% and 77% and the inhibition at 0.03 µM [2] was 50%. The inhibition at 0.03 µM [3] was 89% and the inhibition at 0.1 µM [3] was 96%.
Cc1ccc2c(c1)c1c(n2CC(O)c2ccc(C)nc2)CCN2CCCC12 (single isomer, unassigned) [198a, 2-(9-methyl-1,2,3,4,5,10c-hexahydro-3a,6-diaza-cyclopenta[c]fluoren-6-yl)-1-(6-methyl-pyridin-3-yl)-ethanol] was tested, and the “Percentage inhibition … (0.03 μM)” value [1] was 47%, the “Percentage inhibition of ligand binding, Adrenergic α2A (0.1 μM)” value [2] was 10% and the “Percentage inhibition of ligand binding, Adrenergic α1B (0.1 μM)” value [3] was 24%.
